These results are taken from patent US20070275100A1, “Use of gaseous nitric oxide as an anti-cancer agent” (priority 1998, published 2007).

For data set [1], the system named is H460-epithelial metastatic; large cell lung cancer cells. Briefly: MTS proliferation assay, H460 cells under continuous gNO exposure (Example 1). It counts as cell-based, human. The source says: (gNO) 200 ppm and 350 ppm compared to air (control) on the survival of a representative line of cancer cells. […] […] The plates then were removed and cell viability assessed by an MTS proliferation assay.
When exposed to 350 ppm of gNO, however, cancer cell survival rates decrease dramatically.
A general note: Formazan colour is commonly taken as a measure of viable cells.

For data set [2], the system named is A549. Briefly: MTS cell proliferation assay, 25,000 ppm gNO (Example 4), A549. It is filed as cell-based, human. An excerpt:
(§1) The purpose of this example is to illustrate the tumorcidal activity of high-dosage gNO. We examined the cellular sensitivity to 25,000 ppm of gNO on 5 non-small cell lung cancer (NSCLC) cells lines by an MTS cell proliferation assay.
(§2) Human lung cancer cell lines A549, NCI-H23, NCI-H460, HTB-58, H2170, and H441 (commercially available from American Type Culture Collection (“ATCC”), Manassas, Va.) were maintained in culture medium recommended by ATCC. All media were supplemented with 1% penicillin/streptomycin and 10% fetal bovine serum (commercially available from Invitrogen Gibco-BRL, Burlington, Ontario, Canada). […]
(§3) After 24 hours, the A549, NCI-H23, NCI-H460, HTB-58, H2170 and H441 cells were treated with 25,000 ppm gNO or air (control) for 1 minute, 3 minutes, 6 minutes, 9 minutes, 10 minutes, 20 minutes, and 30 minutes. Immediately following treatment, the viability of the cells was determined using a colorimetric MTS (3-(4,5-dimethylthiazol-2-yl)-5-(3-carboxymethoxyphenyl)-2-(4-sulfophenyl)-2H-tetrazolium, inner salt) cell proliferation assay (commercially available as the CellTiter 960 Aqueous One Solution Cell Proliferation Assay (MTS) from Promega, Madison, Wis., USA) according to the manufacturer's protocol. […] Absorbance was measured at 490 nm for each well using a micro-plate reader (commercially available from Dynex Technologies, Chantilly, Va., USA). […]

Data set [3] concerns NCI-H23. Put plainly: MTS cell proliferation assay, 25,000 ppm gNO (Example 4), NCI-H23. It is filed as cell-based, human.
Description: as §1, §2, §3

In data set [4] the test system is NCI-H460. Put plainly: MTS cell proliferation assay, 25,000 ppm gNO (Example 4), NCI-H460. It is filed as cell-based, human.
Description: as §1, §2, §3

The subject of data set [5] is HTB-58. Briefly: MTS cell proliferation assay, 25,000 ppm gNO (Example 4), HTB-58. It is filed as cell-based, human.
Description: as §1, §2, §3

Data set [6] concerns H441. Put plainly: MTS cell proliferation assay, 25,000 ppm gNO (Example 4), H441. It counts as cell-based, human.
Description: as §1, §2, §3

Data set [7] relates to non-small cell lung cancer (NSCLC) cells lines. Put plainly: MTS cell proliferation assay, 25,000 ppm gNO, NSCLC cell lines taken together (Examples 4 and 5). It counts as cell-based, human.
Description: as §1
Human lung cancer cell lines A549, NCI-H23, NCI-H460, HTB-58, H2170, and H441 (commercially available from American Type Culture Collection (“ATCC”), Manassas, Va.) were maintained in culture medium recommended by ATCC. All media were supplemented with 1% penicillin/streptomycin and 10% fetal bovine serum (commercially available from Invitrogen Gibco-BRL, Burlington, Ontario, Canada). All cell lines were incubated in a humidified incubator at 37° C. supplied with 5% carbon dioxide. The cell lines were tested regularly for the absence of Mycoplasma infections. The cells were routinely maintained in 25 cm tissue culture flasks (commercially available from BD Biosciences Discovery Labware, Oakville, Ontario, Canada) and were harvested by 0.25% trypsin (commercially available from Invitrogen-Gibco-BRL) treatment when they were in a logarithmic phase of growth for all experiments. […]
as §3, with “USA). The relative percentage of cell survival (viability) was calculated by dividing the absorbance of treated cells by that of control cells for each experimental time point.” for “USA).”

The subject of data set [8] is normal human bronchial epithelial cells (NHBE). Briefly: Viability under 25,000 ppm gNO (Example 5), NHBE. It counts as cell-based. The following applies: after 6 minutes, FIG. 8 A. As to the method:
(§4) After 24 hours, the A549, NCI-H23, NCI-H460, HTB-58, H2170 and H441 cells were treated with 25,000 ppm gNO or air (control) for 1 minute, 3 minutes, 6 minutes, 9 minutes, 10 minutes, 20 minutes, and 30 minutes. Immediately following treatment, the viability of the cells was determined using a colorimetric MTS (3-(4,5-dimethylthiazol-2-yl)-5-(3-carboxymethoxyphenyl)-2-(4-sulfophenyl)-2H-tetrazolium, inner salt) cell proliferation assay (commercially available as the CellTiter 960 Aqueous One Solution Cell Proliferation Assay (MTS) from Promega, Madison, Wis., USA) according to the manufacturer's protocol. Briefly, […] of MTS solution was added to each well and the cells were incubated for 2 hours at 37° C. Absorbance was measured at 490 nm for each well using a micro-plate reader (commercially available from Dynex Technologies, Chantilly, Va., USA). The relative percentage of cell survival (viability) was calculated by dividing the absorbance of treated cells by that of control cells for each experimental time point.
(§5) The purpose of this example is to illustrate the effects on normal human cell lines compared to the effects on cancerous cell lines of high-dosage gNO. The above study was repeated. […]

In data set [9] the test system is squamous lung cancer cells (H2170). Put plainly: Viability under 25,000 ppm gNO (Example 5), H2170. It is filed as cell-based. To be noted: Homo sapiens, NCI-H2170, 0.1 h, after 6 minutes, FIG. 8 D. As to the method: as §4, §5
Data set [10] deals with infected wound on the skin. Put plainly: Topical gNO applied to an infected wound on the skin. It counts as in vivo. To be noted: 200 ppm gNO topically applied. The source says: For anti-inflammatory applications of high concentrations of gNO, it is hypothesized that the high dose of NO acts as a feedback loop to down regulate iNOS, and/or acts as a antioxidant on peroxynitrite and other reactive oxygen species and/or remove the stimulus such as bacterial load all leading to the amelioration of high levels of NO or its reactants resulting in damaging pathogenesis. This hypothesis is supported by testing results of the Applicant wherein 200 ppm gNO was topically applied to an infected wound on the skin. […] It is hypothesized that the body stopped producing the “bad” NO causing pathogenic inflammation.

The test system of data set [11] is extra cellular M. tuberculosis. Briefly: Exposure of extracellular M. tuberculosis to NO. It counts as cell-based. The following applies: exogenous NO. An excerpt: Further, it may be inferred that the large population of extracellular bacilli in patients with cavitary pulmonary tuberculosis are also vulnerable to exogenous (inhaled) NO.
Data set [12] has as its system bacteria that cause nosocomial pneumonia in the intensive care unit. The following applies: continuous in vitro exposure to 200 ppm gNO; cited from earlier work.
Where [13] appears, read: 350 ppm NO, 2 hours, RPMI medium.
The mark [14] stands for this setting: 350 ppm NO, 2 hours, RPMI medium, listed as NO.

Molecules are shown by their SMILES. “And” between values parts separate entries of the source, which are not always exact repeats. Equal values may be shown once. Some results are limits rather than exact numbers.

As for `[N]=O` [gNO, nitric oxide], the Average in data set [1] (setting [13]) turned out to be 0.158. In addition, the Survival entry in [1] (setting [13]) is “about 0%”; in data set [1] (setting [14]), 2%. Also, the “Corrected Average” value in [1] (350 ppm NO, 2 hours, RPMI medium, blank subtracted) is reported as 0.037. Besides, the “MTS assay reading, individual wells” value in data set [1] (setting [14]) is 0.193 and 0.147 and 0.152 and 0.154 (2×) and 0.156 and 0.172 and 0.157 and 0.149 (2×) and 0.165 and 0.155 and 0.158 and 0.145 and 0.184 and 0.143. For the same molecule, in data set [1] (350 ppm gNO, 24 hours continuous exposure, compared to air (control)), the survivability came to 2%. The “IC50 (exposure time)” value in data set [2] is listed as “about 3 minutes”; in data set [3], “about 6 minutes”; in data set [4], “about 7 minutes”; in data set [5], “about 7 minutes”; in data set [6] it was “about 7 minutes”. In addition, the viability (as a rule, a per cent measure of how many cells are alive, often set against a control) at 25000 ppm was about 24% in data set [3] (Homo sapiens, NCI-H23, 0.15 h, at 9 minutes); about 17% in data set [6] (Homo sapiens, NCI-H441, 0.15 h, at 9 minutes); 10.7 ± 2.08% in data set [7] (Homo sapiens, 0.15 h, at 9 minutes, read-out: viability, mean value of the other three NSCLC lines); under 10% in data set [9]. The “cells killed, all five cancer cell lines” value in [7] (between 6 and 9 minutes, Example 4) is reported as 75-95%; in [7] (between about 6 and about 9 minutes, repeat study, Example 5), 75-95%. In [8], the viability result is “less than 10%”. The bacterial load entry in data set [10] was “significantly reduced”. For the same molecule, the “inflammatory bodies (histological results)” value in data set [10] is “significant reduction”. Also, the “serum NOX levels” value in data set [10] (compared to the infected control) was “lower”. For the same molecule, in [11], the mycobacteriocidal action entry is “powerful dose-dependent and time-dependent mycobacteriocidal action”. In [12], the “time to cytocidal effect” value was at most 5 h.
